Experimental data as given in patent publication US8895717B2, “Delivery of siRNA by neutral lipid compositions” (The Board of Regents of the University of Texas System, priority 2005, dated 2014).
Structures can show the parent of a compound that is named as a salt.

Experiments:
[1] = system: HeyA8 cells; assay: Chronic restraint stress, HeyA8 orthotopic tumor growth; format: in vivo, nude mice; settings: propranolol Alzet pump 2 mg/kg/day
Source text: Mice habituated to vivarium conditions for 1 week before the initiation of stress procedures. A restraint-stress procedure was used based on previous studies (Sheridan et al., 1991), substituting a novel Mouse Restraint System (FIG. 15A) for conical centrifuge tubes. In this system, up to 10 mice are placed in individual slots, and each slot can be adjusted to restrain the animal for a desired length of time. In the present study, restraint stress began between 8 a.m. and 10 a.m., and lasted for 2-6 hours for up to 21 days. […] Immunohistochemistry and H&E staining procedures were carried out on formalin-fixed paraffin-embedded tumors. […] Pumps were inserted on the nape of the neck 7 days prior to initiation of restraint stress for 2 hours daily. Mice were anesthetized with inhaled methoxyflurane (Medical Developments Australia Pty. Ltd, Melbourne, Australia), and implanted with Alzet pumps containing PBS or S-propranolol hydrochloride (Sigma Co., St. Louis, Mo.) diluted in PBS at a dose of 2 mg/kg/day, which allows for chronic continuous receptor blockade, for 28 days (Aarons and Molinoff, 1982; Exton et al., 2002).

[2] = system: HeyA8 cells; assay: Daily β-agonist treatment of mice bearing HeyA8 ovarian cancer cells; format: in vivo, nude mice; settings: terbutaline 5 mg/kg, xamoterol 1 mg/kg, isoproterenol plus propranolol 2 mg/kg, daily
Source text: Mice habituated to vivarium conditions for 1 week before the initiation of stress procedures. A restraint-stress procedure was used based on previous studies (Sheridan et al., 1991), substituting a novel Mouse Restraint System (FIG. 15A) for conical centrifuge tubes. In this system, up to 10 mice are placed in individual slots, and each slot can be adjusted to restrain the animal for a desired length of time. In the present study, restraint stress began between 8 a.m. and 10 a.m., and lasted for 2-6 hours for up to 21 days. The ovarian cancer cell lines were harvested from subconfluent cultures by a brief exposure to 0.25% trypsin and 0.02% EDTA, resuspended in Hank's balanced salt solution (HBSS), and tested for >95% viability by trypan blue dye exclusion. The HeyA8 cells were injected i.p. into mice at a concentration of 2.5×10^5 cells while the other cell lines were injected at 1.0×10^6 cells per 0.2 ml HBSS, ten days after starting stress in all groups. Animals were necropsied 21 days after tumor injection, and tumors in the peritoneal cavity were excised, weighed, and documented for location. Immunohistochemistry and H&E staining procedures were carried out on formalin-fixed paraffin-embedded tumors.
Starting 4 days after tumor cell injection, mice bearing HeyA8 ovarian cancer cells (n=10 per group) were treated daily with either 1) PBS; 2) isoproterenol (non-specific β-agonist) 10 mg/kg; 3) terbutaline (β2-agonist) 5 mg/kg; 4) xamoterol (β1-agonist) 1 mg/kg; or 5) isoproterenol plus 2 mg/kg of the non-specific β-antagonist propranolol.

[3] = system: VEGF mRNA; assay: VEGF mRNA expression, real-time RT-PCR; format: cell-based, human; settings: SKOV3ip1; forskolin 1 μM, db-cAMP 1 mM
Method: Total RNA was extracted (Trizol reagent; Invitrogen Co, Carlsbad, Calif.) and reverse transcribed using an oligo(dT) primer and M-MLV reverse transcriptase (Life Technologies, Inc., Rockville, Md.) in a final reaction volume of 20 μl (60 min at 42° C.). PCR amplifications are performed using the ABI Prism 7700 Sequence Detection System with TaqMan One-Step RT-PCR Master Mix Reagent kit (PE Applied Biosystems, Foster City, Calif.). Quantitative values are obtained from the Ct value, at which the increase in fluorescent signal associated with exponential growth of PCR products starts to be detected by the laser detector of the Sequence Detection System, using the analysis software according to the manufacturer's instructions (each sample is normalized on the basis of its I8S content). The VEGF primers were obtained from Applied Biosystems (Item number HS00173626-ml). βAR expression was examined with semi-quantitative RT-PCR using the following primers: βAR (forward, 5′-[…]-3′ (SEQ ID NO:13), reverse, 5′-[…]-3′) (SEQ ID NO:14); β2AR (forward, 5′-[…]-3′ (SEQ ID NO:15), reverse, 5′-[…]-3′) (SEQ ID NO:16).

[4] = system: HeyA8 tumor samples; assay: Mean vessel density (CD31) in HeyA8 tumor samples; format: in vivo, nude mice; settings: for MVD counts: daily agonist treatment
Method: Paraffin sections were stained for CD31 (1:800 dilution, Pharmingen, San Jose, Calif.), MMP-2 (1:500 dilution, Chemicon, Temecula, Calif.), MMP-9 (1:200 dilution, Calbiochem, San Diego, Calif.), VEGF (1:500 dilution, Santa Cruz Biotechnology, Santa Cruz, Calif.) and bFGF (1:1,000 dilution, Sigma, St. Louis, Mo.) at 4° C. Samples were stained with a biotinylated goat anti-rabbit antibody for 30 min (prediluted), followed by strepavidin horseradish peroxidase for 30 min (1:300 dilution), and visualized in 3,3′-diaminobenzidine (DAB) for 5-10 min.
To quantify MVD, 10 random 0.159 mm^2 fields at 100× magnification were examined for each tumor, and the microvessels within those fields were counted. A single microvessel was defined as a discrete cluster of cells stained CD31(+), and the presence of a lumen was required for scoring as a microvessel.

[5] = system: FAK; assay: FAK cleavage in response to docetaxel, Western blot; format: cell-based, human; settings: in the presence of DEVD-fmk
Method: Cells were lysed in modified RIPA buffer (50 mM Tris, 150 mM NaCl, 1% triton, 0.5% deoxycholate plus 25 µg/ml leupeptin, 10 µg/ml aprotinin, 2 mM EDTA, and 1 mM sodium orthovanadate (Sigma Chemical Co, St. Louis, Mo.) as previously described (Sood et al., 2004; Sood et al., 2002). A sample was removed from culture dishes by cell scraping and centrifuged at 12,500 rpm for 30 min. The […] protein concentration of the supernatant was determined using a bicinchoninic acid protein assay reagent kit (Pierce, Rockford, Ill.), and whole cell lysates were analyzed by 7.5% SDS-PAGE. Samples were then transferred to nitrocellulose membrane by semi-dry transfer (BioRad Laboratories, Hercules, Calif.). Membranes were blocked with 5% nonfat milk, and incubated with 0.25 μg/mL anti-FAK antibody (Biosource, International Camarillo, Calif.) for 1 h at room temperature. Antibody was detected with 0.167 μg/mL HRP-conjugated anti-mouse secondary antibody (The Jackson Laboratory, Bar Harbor, Me.) and developed with an enhanced chemiluminescence detection kit (Pierce). Equal loading was confirmed by detection of β-actin (0.1 μg/ml, anti-β-actin antibody, Sigma Chemical). Densitometric analysis was performed using the Scion Imaging software (Scion Corporation, Frederick, Md.).
It has been reported that FAK may be cleaved by caspase-3 (Gervais et al., 1998; Sasaki et al., 2002; Carragher et al., 2001). Based on observations regarding modulation of caspase levels by docetaxel in ovarian cancer cells, FAK cleavage after treatment with docetaxel was examined and whether there are differences in extent of FAK cleavage between the taxane-sensitive and taxane-resistant cell lines. In SKOV3 cells, FAK was cleaved after 48 and 72 hours of exposure to docetaxel (FIG. 7A). The 71-kDa fragments increased after treatment with docetaxel, whereas the 125-kDa fragments decreased. […] To study the dependence of FAK cleavage on caspase-3, the effect of DEVDfmk (caspase-3 inhibitor) was examined.

[6] = system: HeyA8 cells; assay: TUNEL apoptosis assay, HeyA8; format: cell-based, human; settings: HeyA8, docetaxel 72 hours without or with DEVD-fmk
Method: (§1) Terminal deoxynucleotidyl transferase-mediated nick end labeling-positive cells were detected using Dead End Fluorometric terminal deoxynucleotidyl transferase-mediated nick end labeling system (APO-DIRECT, BD Biosciences/PharMingen, San Diego, Calif.) according to the manufacturer's instructions. […] Cells were fixed with 4% paraformaldehyde solution for 25 minutes on ice. Intracellular DNA fragments were then labeled by exposing cells to fluorescein-12-dUTP, treated with propidium iodide and RNaseA solution, and analyzed by flow cytometry (EPICS XL, Beckman Coulter, Miami, Fla.). The percentages of apoptotic cells were averaged over three consecutive experiments.

[7] = system: SKOV3 cells; assay: TUNEL apoptosis assay, SKOV3; format: cell-based, human; settings: SKOV3, docetaxel 72 hours without or with DEVD-fmk
Method: as §1

**Q.** `CC(C)NC[C@H](O)COc1cccc2ccccc12` (racemic) [propranolol, S-propranolol hydrochloride] was tested. Which “invasive disease among stressed animals” value [1] did it give?
**A.** The value was 0%.

**Q.** And the “effect of stress on tumor weight and number of nodules” value ([1]; daily 2 hour stress)?
**A.** Its value is “stress did not significantly increase tumor weight or the number of tumor nodules”.

**Q.** And the tumor burden [2]?
**A.** The tumor burden was “blocked the isoproterenol-induced increase in tumor growth”.

**Q.** And the “effect on VEGF mRNA” value [3]?
**A.** The value was “blocked”.

**Q.** And the MVD counts [4]?
**A.** The MVD counts was “blocked that increase as well”.

**Q.** And the “stress-induced increases in MVD counts” value ([4]; stressed animals)?
**A.** Its value is “efficiently blocked stress-induced increases in MVD counts”.

**Q.** `CCCCCCOC(=O)[C@]1(O)C[C@@H]2O[C@@]1(C)n1c3ccccc3c3c4c(c5c6ccccc6n2c5c31)C(=O)NC4` [KT5720] was tested. Which “effect on VEGF mRNA” value [3] did it give?
**A.** The value was “efficiently blocked the effects of norepinephrine and forskolin on VEGF mRNA expression”.

**Q.** How did the “docetaxel-induced FAK cleavage” value [5] turn out when `COC(=O)CC[C@H](NC(=O)[C@H](CC(=O)OC)NC(=O)OCc1ccccc1)C(=O)N[C@H](C(=O)N[C@@H](CC(=O)OC)C(=O)CF)C(C)C` [DEVD-fmk] was run?
**A.** The value was “docetaxel-induced FAK cleavage was blocked”.

**Q.** And the “proportion of apoptotic cells” value [6]?
**A.** Its value is 6%.

**Q.** What about the “proportion of apoptotic cells” value [7] of the same molecule?
**A.** The value was 7%.

**Q.** How did the MVD counts [4] turn out when `CC(C)(C)NCC(O)c1cc(O)cc(O)c1` (stereo not drawn) [terbutaline] was run?
**A.** Its MVD counts is “significantly higher MVD counts compared to controls”.

**Q.** For `CCCC(=O)Nc1ncnc2c1ncn2[C@@H]1O[C@@H]2COP(=O)(O)O[C@H]2[C@H]1OC(=O)CCC` [dibutyryl cAMP], which “effect on VEGF mRNA” value [3] is on record?
**A.** Its value is “also increased VEGF mRNA levels”.
